Measurements published in patent US20140137274A1, “INDUCED MALIGNANT STEM CELLS” (LSIP, LLC, priority 2011, published 2014).

Tested on: cancer-related miRNAs
Experiment: miRNA expression microarray (SurePrint G3 Human miRNA Microarray Rel.16.0)
Conditions: logarithmic (log2) value of quotient vs control
Experimental: Total RNA was prepared from each of six induced malignant stem cells, one induced non-malignant stem cell, and one induced pluripotent stem cell as mentioned above, and the prepared total RNAs were used in Agilent SurePrint G3 Human miRNA Microarray Rel.16.0 to detect abnormal expression (increased or reduced/lost expression) of non-coding RNAs such as endogenous cancer-related microRNAs in the induced malignant stem cells.
Complete Labeling Reagent and Hyb Kit in accordance with the Agilent protocol. To be specific, each sample total RNA (100 ng) was dephosphorylated with Calf Intestine Alkaline Phosphatase (CIP), and the RNA molecule on its 3′ terminal side was labeled with a cyanine 3-cytidine bisphosphate (pCp-Cy3) molecule using T4 RNA Ligase.
The RNA samples labeled in (14-2-3) were hybridized with SurePrint G3 Human miRNA Microarray Rel.16.0 using Agilent miRNA Complete Labeling Reagent and Hyb Kit. To be specific, each of the labeled RNAs was added to a hybridization buffer and allowed to hybridize on SurePrint G3 Human miRNA Microarray Rel.16.0 for 20 hours. After washing, the DNA microarray image was scanned by Agilent Microarray Scanner, and fluorescence signals from the spots were digitized by Feature Extraction Software (v.10.7.3.1).
The miRNAs were annotated using miRBase Release 18, and hybridization was performed onto a microarray chip with the probes designed for the miRNAs shown in the following table (refer to Table 31 below).
In this analysis, the normalized value of the digital data for the hybridization of a subject cell (induced malignant stem cell) sample was divided by the normalized value from the digital data for the hybridization of a control cell sample and the quotient was used as a measure of variation in expression. Probes for which the quotients deviated from 1 (i.e., log21=0) were considered to indicate a variation in expression; those showing quotients greater than 2 (log22=1) or smaller than 0.5 (log20.5=−1) were selected. For each of the comparisons shown below, the genes shown in the tyrosine kinase list and those shown in the cancer drug targets list were analyzed to make respective lists of the genes showing quotients greater than 2 (log22=1) or smaller than 0.5 (log20.5=−1), as compared with the quotient for the control (taken as 1). The analysis was performed using GeneSpring 12.1.
The Normalized column represents a variation in expression in logarithmic values.

For “hsa-miR-210 (TCAGCCGCTGTCACAC; chemistry not given here)”, the “Normalized (variation in microRNA expression, subject cell / control cell)” value ([Ngc1_7]vs [Nib2_17]) was 1.643, the “Normalized (variation in microRNA expression, subject cell / control cell)” value ([cc4_c]vs [Nfb2_17]) was 3.796 and the “Normalized (variation in microRNA expression, subject cell / control cell)” value ([gc2_5]vs [Nfb2_17]) was −1.628. For the same substance, the “Normalized (variation in microRNA expression, subject cell / control cell)” value ([gcl_6]vs [Nfb2_17]) was 2.036.

“hsa-miR-205-5p (CAGACTCCGGTGGAAT; chemistry not given here)” was tested, and the “Normalized (variation in microRNA expression, subject cell / control cell)” value ([Ngc1_7]vs [Nib2_17]) was −1.315, the “Normalized (variation in microRNA expression, subject cell / control cell)” value ([gc2_1]vs [Nfb2_17]) was −1.577 and the “Normalized (variation in microRNA expression, subject cell / control cell)” value ([gc2_5]vs [Nfb2_17]) was −2.341. The “Normalized (variation in microRNA expression, subject cell / control cell)” value ([gc2_10]vs +Nfb2_17]) was −2.908.

With “hsa-miR-29b-3p (AACACTGATTTCAAATGGTGC; chemistry not given here)” the “Normalized (variation in microRNA expression, subject cell / control cell)” value ([cc4_c]vs [Nfb2_17]) was 4.488.

“hsa_miR-301a-3p (GCTTTGACAATACTATTGCAC; chemistry not given here)” was tested, and the “Normalized (variation in microRNA expression, subject cell / control cell)” value ([cc4_c]vs [Nfb2_17]) was −1.212.

In the case of “hsa-let-7i-5p (AACAGCACAAACTACTACCTC; chemistry not given here)”, the “Normalized (variation in microRNA expression, subject cell / control cell)” value ([Ngc1_7]vs [Nib2_17]) is reported as 2.747, the “Normalized (variation in microRNA expression, subject cell / control cell)” value ([cc4_c]vs [Nfb2_17]) is reported as 4.054 and the “Normalized (variation in microRNA expression, subject cell / control cell)” value ([gc1_6]vs [Ngc1_7]) is reported as −1.307. For the same substance, the “Normalized (variation in microRNA expression, subject cell / control cell)” value ([gcl_6]vs [Nfb2_17]) was 1.44.

For “hsa-let-7g-5p (AACTGTACAAACTACTACCTC; chemistry not given here)”, the “Normalized (variation in microRNA expression, subject cell / control cell)” value ([gc1_6]vs [Ngc1_7]) was −1.935.

With “hsa-miR-7-5p (ACAACAAAATCACTAGTCTTCC; chemistry not given here)” the “Normalized (variation in microRNA expression, subject cell / control cell)” value ([cc4_c]vs [Nfb2_17]) was 2.213.

With “hsa-miR-373-3p (ACACCCCAAAATCGAAGC; chemistry not given here)” the “Normalized (variation in microRNA expression, subject cell / control cell)” value ([Ngc1_7]vs [Nib2_17]) was −2.818, the “Normalized (variation in microRNA expression, subject cell / control cell)” value ([gc1_6]vs [Ngc1_7]) was 1.725 and the “Normalized (variation in microRNA expression, subject cell / control cell)” value ([gc2_5]vs [Nfb2_17]) was −2.93. The “Normalized (variation in microRNA expression, subject cell / control cell)” value ([gc2_10]vs +Nfb2_17]) was −3.202 and the “Normalized (variation in microRNA expression, subject cell / control cell)” value ([gcl_6]vs [Nfb2_17]) was −1.094.

In the case of “hsa-miR-134 (CCCCTCTGGTCAA; chemistry not given here)”, the “Normalized (variation in microRNA expression, subject cell / control cell)” value ([Ngc1_7]vs [Nib2_17]) is reported as 2.736, the “Normalized (variation in microRNA expression, subject cell / control cell)” value ([gc2_1]vs [Nfb2_17]) is reported as 1.853 and the “Normalized (variation in microRNA expression, subject cell / control cell)” value ([gc2_5]vs [Nfb2_17]) is reported as 1.299. For the same substance, the “Normalized (variation in microRNA expression, subject cell / control cell)” value ([gc2_10]vs +Nfb2_17]) was 2.829 and the “Normalized (variation in microRNA expression, subject cell / control cell)” value ([gcl_6]vs [Nfb2_17]) was 2.883.

For “hsa-miR-25-3p (TCAGACCGAGACAAGTGC; chemistry not given here)”, the “Normalized (variation in microRNA expression, subject cell / control cell)” value ([gc2_1]vs [Nfb2_17]) was −1.899, the “Normalized (variation in microRNA expression, subject cell / control cell)” value ([gc2_5]vs [Nfb2_17]) was −1.478 and the “Normalized (variation in microRNA expression, subject cell / control cell)” value ([gc2_10]vs +Nfb2_17]) was −1.515.

For “hsa-let-7f-5p (AACTATACAATCTACTACCTC; chemistry not given here)”, the “Normalized (variation in microRNA expression, subject cell / control cell)” value ([cc4_c]vs [Nfb2_17]) was 5.523 and the “Normalized (variation in microRNA expression, subject cell / control cell)” value ([gc1_6]vs [Ngc1_7]) was −1.421.

“hsa-miR-34c-5p (GCAATCAGCTAACTACACTG; chemistry not given here)” was tested, and the “Normalized (variation in microRNA expression, subject cell / control cell)” value ([cc4_c]vs [Nfb2_17]) was 1.308.

For “hsa-miR-222-3p (ACCCAGTAGCCAG; chemistry not given here)”, the “Normalized (variation in microRNA expression, subject cell / control cell)” value ([cc4_c]vs [Nfb2_17]) was 1.861.

In the case of “hsa-miR-27a-3p (GCGGAACTTAGCCACTG; chemistry not given here)”, the “Normalized (variation in microRNA expression, subject cell / control cell)” value ([Ngc1_7]vs [Nib2_17]) is reported as 1.084, the “Normalized (variation in microRNA expression, subject cell / control cell)” value ([cc4_c]vs [Nfb2_17]) is reported as 3.755 and the “Normalized (variation in microRNA expression, subject cell / control cell)” value ([gc1_6]vs [Ngc1_7]) is reported as −1.047.

With “hsa-miR-17-5p (CTACCTGCACTGTAAGC; chemistry not given here)” the “Normalized (variation in microRNA expression, subject cell / control cell)” value ([gc2_1]vs [Nfb2_17]) was −3.19 and the “Normalized (variation in microRNA expression, subject cell / control cell)” value ([gc2_5]vs [Nfb2_17]) was −3.466.

“hsa-miR-23b-3p (GGTAATCCCTGGCAATG; chemistry not given here)” was tested, and the “Normalized (variation in microRNA expression, subject cell / control cell)” value ([Ngc1_7]vs [Nib2_17]) was 1.154, the “Normalized (variation in microRNA expression, subject cell / control cell)” value ([cc4_c]vs [Nfb2_17]) was 3.268 and the “Normalized (variation in microRNA expression, subject cell / control cell)” value ([gc1_6]vs [Ngc1_7]) was −1.014.

For “hsa-miR-200c-3p (TCCATCATTACCCGG; chemistry not given here)”, the “Normalized (variation in microRNA expression, subject cell / control cell)” value ([Ngc1_7]vs [Nib2_17]) was 1.59, the “Normalized (variation in microRNA expression, subject cell / control cell)” value ([cc4_c]vs [Nfb2_17]) was 4.536 and the “Normalized (variation in microRNA expression, subject cell / control cell)” value ([gc2_1]vs [Nfb2_17]) was −1.393. The “Normalized (variation in microRNA expression, subject cell / control cell)” value ([gc2_10]vs +Nfb2_17]) was −1.715 and the “Normalized (variation in microRNA expression, subject cell / control cell)” value ([gcl_6]vs [Nfb2_17]) was 2.005.

“hsa-miR-34a-5p (ACAACCAGCTAAGACACTGC; chemistry not given here)” was tested, and the “Normalized (variation in microRNA expression, subject cell / control cell)” value ([gc2_1]vs [Nfb2_17]) was −2.608, the “Normalized (variation in microRNA expression, subject cell / control cell)” value ([gc2_5]vs [Nfb2_17]) was −2.833 and the “Normalized (variation in microRNA expression, subject cell / control cell)” value ([gc2_10]vs +Nfb2_17]) was −2.706.

For “hsa-miR-372 (ACGCTCAAATGTCGCAGC; chemistry not given here)”, the “Normalized (variation in microRNA expression, subject cell / control cell)” value ([Ngc1_7]vs [Nib2_17]) was −3.388, the “Normalized (variation in microRNA expression, subject cell / control cell)” value ([gc1_6]vs [Ngc1_7]) was 2.003 and the “Normalized (variation in microRNA expression, subject cell / control cell)” value ([gcl_6]vs [Nfb2_17]) was −1.385.

For “hSA-lEt-7f-5p (AACTATACAATCTACTACCTC; chemistry not given here)”, the “Normalized (variation in microRNA expression, subject cell / control cell)” value ([Ngc1_7]vs [Nib2_17]) was 2.259.

“hsa-miR-29a-3p (TAACCGATTTCAGATGGTGC; chemistry not given here)” was tested, and the “Normalized (variation in microRNA expression, subject cell / control cell)” value ([cc4_c]vs [Nfb2_17]) was 3.972 and the “Normalized (variation in microRNA expression, subject cell / control cell)” value ([gc2_10]vs +Nfb2_17]) was −3.561.

For “hsa-let-7b-5p (AACCACACAACCTACTACC; chemistry not given here)”, the “Normalized (variation in microRNA expression, subject cell / control cell)” value ([gc1_6]vs [Ngc1_7]) was −1.937.

“hsa-let-7c (AACCATACAACCTACTACC; chemistry not given here)” was tested, and the “Normalized (variation in microRNA expression, subject cell / control cell)” value ([Ngc1_7]vs [Nib2_17]) was 2.65 and the “Normalized (variation in microRNA expression, subject cell / control cell)” value ([gc1_6]vs [Ngc1_7]) was −1.801.

“hsa-miR-27b-3p (GCAGAACTTAGCCACTGT; chemistry not given here)” was tested, and the “Normalized (variation in microRNA expression, subject cell / control cell)” value ([cc4_c]vs [Nfb2_17]) was 2.569, the “Normalized (variation in microRNA expression, subject cell / control cell)” value ([gc2_1]vs [Nfb2_17]) was −2.575 and the “Normalized (variation in microRNA expression, subject cell / control cell)” value ([gc2_10]vs +Nfb2_17]) was −2.297.

With “hsa-miR-21-5p (TCAACATCAGTCTGATAAGC; chemistry not given here)” the “Normalized (variation in microRNA expression, subject cell / control cell)” value ([Ngc1_7]vs [Nib2_17]) was 1.136, the “Normalized (variation in microRNA expression, subject cell / control cell)” value ([cc4_c]vs [Nfb2_17]) was 2.904 and the “Normalized (variation in microRNA expression, subject cell / control cell)” value ([gc2_1]vs [Nfb2_17]) was −6.311. The “Normalized (variation in microRNA expression, subject cell / control cell)” value ([gc2_5]vs [Nfb2_17]) was −6.38 and the “Normalized (variation in microRNA expression, subject cell / control cell)” value ([gc2_10]vs +Nfb2_17]) was −5.844.

With “hsa-miR-18a-5p (CTATCTGCACTAGATGCA; chemistry not given here)” the “Normalized (variation in microRNA expression, subject cell / control cell)” value ([cc4_c]vs [Nfb2_17]) was −1.44.

With “hsa-let-7e-5p (AACTATACAACCTCCTACC; chemistry not given here)” the “Normalized (variation in microRNA expression, subject cell / control cell)” value ([Ngc1_7]vs [Nib2_17]) was 3.356, the “Normalized (variation in microRNA expression, subject cell / control cell)” value ([cc4_c]vs [Nfb2_17]) was 4.793 and the “Normalized (variation in microRNA expression, subject cell / control cell)” value ([gc1_6]vs [Ngc1_7]) was −2.684. The “Normalized (variation in microRNA expression, subject cell / control cell)” value ([gc2_1]vs [Nfb2_17]) was 1.601 and the “Normalized (variation in microRNA expression, subject cell / control cell)” value ([gc2_10]vs +Nfb2_17]) was 2.18.
